Experimental data as given in US20250214978A1, “AT2R AGONIST” (WUHAN HUMANWELL INNOVATIVE DRUG RESEARCH AND DEVELOPMENT …, priority 2022, published 2025).
Like-named read-outs stand apart in the source and are kept apart here.

Columns and labels:
Format in all cases: in vitro ADME
CYP1A2 = CYP1A2 (Homo sapiens (Human), UniProt P05177); experiment: CYP inhibition assay in mixed human liver microsomes
Protocol: (§1) The inhibitory effects of the compounds on seven enzymes, i.e., CYP1A2, CYP2C9, CYP2C19, CYP2D6, CYP3A4 (midazolam), CYP2B6, and CYP2C8, were evaluated at a concentration of 10 μM. Mixed human liver microsomes, which were previously stored in a −80° C. refrigerator before use, were taken out and thawed in a water bath at 37° C. before use, and placed on ice for further operation. 100 μL of microsome working solution was taken, and added with 2 μL of test product or positive inhibitor working solution. 2 μL of solvent was added to the solvent control. The mixture was pre-incubated in a water bath at 37° C. for 10 minutes. After preincubation, 98 μL of NADPH regeneration solution was added to all samples to initiate the reaction. Then, the samples were put back into the water bath and incubated for a period of time. The reaction was quenched with 200 μL of stop solution. The plate was centrifuged at 3,220 g for 10 minutes, 100 μL of supernatant was transferred, and 100 μL of water was added and mixed well to the assay plate for LC/MS/MS analysis.

CYP2B6 = CYP2B6 (Homo sapiens (Human), UniProt P20813); experiment: as above; details: mixed (pooled) human liver microsomes, read-out: Inhibition rate % CYP2B6
Protocol: as §1

CYP2C19 = CYP2C19 (Homo sapiens (Human), UniProt P33261); experiment: as above; details: mixed (pooled) human liver microsomes, read-out: Inhibition rate % CYP2C19
Protocol: as §1

CYP2C8 = CYP2C8 (Homo sapiens (Human), UniProt P10632); experiment: as above; details: mixed (pooled) human liver microsomes, read-out: Inhibition rate % CYP2C8
Protocol: as §1

CYP2C9 = CYP2C9 (Homo sapiens (Human), UniProt P11712); experiment: as above; details: mixed (pooled) human liver microsomes, read-out: Inhibition rate % CYP2C9
Protocol: as §1

CYP2D6 = CYP2D6 (Homo sapiens (Human), UniProt P10635); experiment: as above; details: mixed (pooled) human liver microsomes, read-out: Inhibition rate % CYP2D6
Protocol: as §1

CYP3A4 = CYP3A4 (Homo sapiens (Human), UniProt P08684); experiment: as above; details: mixed (pooled) human liver microsomes, probe midazolam, read-out: Inhibition rate % CYP3A4 (midazolam)
Protocol: as §1

[1] = Liver microsome stability assay; details: Human liver microsomes, NADPH, 37° C.; read-out: T1/2 (min) Human
Protocol: The human liver microsome stability assay was performed by co-incubating the compound with human liver microsomes in vitro. The test compounds were first prepared as 10 mM stock solutions in DMSO solvent, and then diluted to 0.5 mM with acetonitrile. Human liver microsomes (Corning) were diluted with PBS to prepare a microsome/buffer solution, and this solution was used to dilute 0.5 mM of the compound to prepare a working solution. In the working solution, a concentration of the compound was 1.5 μM and a concentration of the human liver microsome was 0.75 mg/ml. A deep-well plate was taken, 30 μL of working solution was added to each well of the plate, and then 15 μL of pre-heated NADPH solution (6 mM) was added to start the reaction. The mixture was incubated at 37° C. 135 μL of acetonitrile was added to the corresponding wells to stop the reaction at 0 minute, 5 minutes, 15 minutes, 30 minute, and 45 minutes of incubation. Subsequent to the stop of the reaction by means of acetonitrile at the last time point of 45 minute, the plate was vortexed for 10 minutes (600 rpm/min) and then centrifuged for 15 minutes. […] The peak area ratios of the compound at 5 minutes, 15 minutes, 30 minutes, and 45 minutes were compared with the peak area ratio at 0 minute, and the remaining percentage of the compound at each time point was calculated. T1/2 was calculated using Graphpad8 software.

[2] = Liver microsome stability assay; details: Mouse liver microsomes; read-out: T1/2 (min) Mouse
[3] = Liver microsome stability assay; details: dog; Canine liver microsomes; read-out: T1/2 (min) Canine
[4] = Bidirectional permeability study in CACO-2 cells; details: human, pH 7.4, Caco-2 monolayer, pH 7.40
Protocol: Caco-2 cells were inoculated onto polyethylene membrane (PET) in 96-well inserted plates at a rate of 1×10^5 cells/cm^2, and the medium was changed every 4 to 5 days until day 21 to 28, to form a fused cell monolayer. The transport buffer in the assay was HBSS and 10.0 mM HEPES, with a pH of 7.40±0.05. The test compounds were subjected to a bidirectional test at 2.00 μM in the presence and absence of GF120918 (10.0 μM). Digoxin was subjected to a bidirectional test at 10.0 μM in the presence and absence of GF120918 (10.0 μM), while Nadolol and Metoprolol were subjected to a test from direction A to direction B at 2.00 μM in the absence of GF120918 (10.0 μM). The above tests were performed in duplicate. The final concentration of DMSO was adjusted to be lower than 1%. The plate was incubated in a CO2 incubator at 37° C.±1° C. for 2 hours, and 5% CO2 was added under saturated humidity without shaking. All the samples, after being mixed with acetonitrile containing internal standard, were centrifuged at 3,200 g for 10 minutes. […] The concentrations of the test compounds and control compounds in the starting solution, the donor solution, and the acceptor solution were quantified by LC-MS/MS based on a peak area ratio of the analyte to the internal standard.
After the transport assay, the integrity of the Caco-2 cell monolayer was determined using Lucifer Yellow Exclusion Assay.

Chain of CYP2B6 (P20813 whole entry): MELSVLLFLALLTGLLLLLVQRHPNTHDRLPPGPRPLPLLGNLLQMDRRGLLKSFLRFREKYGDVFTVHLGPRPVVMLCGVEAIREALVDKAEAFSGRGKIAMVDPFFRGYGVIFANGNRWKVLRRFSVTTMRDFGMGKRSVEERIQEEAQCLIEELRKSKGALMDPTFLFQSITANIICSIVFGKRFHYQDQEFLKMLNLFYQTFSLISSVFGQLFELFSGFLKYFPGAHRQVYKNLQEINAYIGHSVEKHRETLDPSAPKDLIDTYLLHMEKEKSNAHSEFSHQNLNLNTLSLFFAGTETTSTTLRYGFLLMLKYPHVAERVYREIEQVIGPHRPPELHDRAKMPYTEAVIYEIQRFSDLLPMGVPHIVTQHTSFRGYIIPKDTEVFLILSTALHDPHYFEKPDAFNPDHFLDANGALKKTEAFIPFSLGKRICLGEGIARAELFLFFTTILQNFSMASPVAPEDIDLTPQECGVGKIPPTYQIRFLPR
Chain of CYP2C9 (P11712 whole entry): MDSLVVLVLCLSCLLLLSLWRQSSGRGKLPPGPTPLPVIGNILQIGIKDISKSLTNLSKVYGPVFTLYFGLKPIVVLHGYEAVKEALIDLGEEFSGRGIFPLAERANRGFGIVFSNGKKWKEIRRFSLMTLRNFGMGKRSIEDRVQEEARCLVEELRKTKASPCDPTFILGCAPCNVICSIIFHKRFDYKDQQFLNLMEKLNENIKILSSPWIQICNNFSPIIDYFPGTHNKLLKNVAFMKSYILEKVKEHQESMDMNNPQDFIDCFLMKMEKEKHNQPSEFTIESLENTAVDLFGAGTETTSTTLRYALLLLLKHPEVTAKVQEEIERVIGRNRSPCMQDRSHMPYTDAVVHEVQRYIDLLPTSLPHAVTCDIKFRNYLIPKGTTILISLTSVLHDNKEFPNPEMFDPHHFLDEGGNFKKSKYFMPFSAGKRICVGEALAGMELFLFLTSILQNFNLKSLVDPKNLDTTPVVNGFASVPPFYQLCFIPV
Chain of CYP2D6 (P10635 whole entry): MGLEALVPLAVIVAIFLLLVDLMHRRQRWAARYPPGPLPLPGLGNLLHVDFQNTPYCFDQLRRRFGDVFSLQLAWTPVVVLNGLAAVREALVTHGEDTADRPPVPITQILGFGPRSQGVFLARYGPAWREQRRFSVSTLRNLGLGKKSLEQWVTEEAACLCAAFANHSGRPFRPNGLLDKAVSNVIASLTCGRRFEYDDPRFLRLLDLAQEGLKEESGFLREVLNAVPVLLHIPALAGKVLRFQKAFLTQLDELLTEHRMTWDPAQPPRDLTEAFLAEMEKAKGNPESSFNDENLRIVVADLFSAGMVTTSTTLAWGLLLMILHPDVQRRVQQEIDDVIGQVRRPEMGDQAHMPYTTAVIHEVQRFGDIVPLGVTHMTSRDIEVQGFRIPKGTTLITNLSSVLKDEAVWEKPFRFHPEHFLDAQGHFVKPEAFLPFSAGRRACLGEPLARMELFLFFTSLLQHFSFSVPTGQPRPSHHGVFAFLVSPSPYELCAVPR
Chain of CYP2C19 (P33261 whole entry): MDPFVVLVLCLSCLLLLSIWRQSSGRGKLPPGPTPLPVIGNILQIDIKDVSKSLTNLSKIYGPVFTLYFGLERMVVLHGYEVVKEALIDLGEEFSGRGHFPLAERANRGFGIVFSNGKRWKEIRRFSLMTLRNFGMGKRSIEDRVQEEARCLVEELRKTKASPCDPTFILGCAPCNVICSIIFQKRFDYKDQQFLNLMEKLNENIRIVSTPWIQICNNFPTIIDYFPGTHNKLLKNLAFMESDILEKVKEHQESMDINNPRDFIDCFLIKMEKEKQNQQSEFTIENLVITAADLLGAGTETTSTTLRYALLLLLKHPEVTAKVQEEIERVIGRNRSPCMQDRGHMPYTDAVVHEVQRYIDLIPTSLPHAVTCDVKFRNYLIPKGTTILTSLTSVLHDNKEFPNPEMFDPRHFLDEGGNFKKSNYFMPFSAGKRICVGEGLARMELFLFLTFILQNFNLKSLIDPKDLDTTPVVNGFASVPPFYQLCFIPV
Chain of CYP3A4 (P08684 whole entry): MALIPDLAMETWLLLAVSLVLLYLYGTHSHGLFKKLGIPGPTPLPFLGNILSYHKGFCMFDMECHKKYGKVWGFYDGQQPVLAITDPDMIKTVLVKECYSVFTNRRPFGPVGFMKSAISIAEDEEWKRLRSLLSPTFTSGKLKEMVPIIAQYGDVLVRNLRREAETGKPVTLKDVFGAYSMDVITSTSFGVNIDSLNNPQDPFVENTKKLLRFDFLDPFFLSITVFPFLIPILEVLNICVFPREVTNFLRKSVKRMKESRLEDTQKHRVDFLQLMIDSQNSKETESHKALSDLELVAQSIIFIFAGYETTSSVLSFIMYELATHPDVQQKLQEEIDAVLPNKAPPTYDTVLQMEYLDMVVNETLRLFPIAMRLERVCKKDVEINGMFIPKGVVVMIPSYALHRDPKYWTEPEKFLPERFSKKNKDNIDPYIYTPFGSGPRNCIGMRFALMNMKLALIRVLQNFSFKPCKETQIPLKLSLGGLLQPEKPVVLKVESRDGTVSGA
Chain of CYP1A2 (P05177 whole entry): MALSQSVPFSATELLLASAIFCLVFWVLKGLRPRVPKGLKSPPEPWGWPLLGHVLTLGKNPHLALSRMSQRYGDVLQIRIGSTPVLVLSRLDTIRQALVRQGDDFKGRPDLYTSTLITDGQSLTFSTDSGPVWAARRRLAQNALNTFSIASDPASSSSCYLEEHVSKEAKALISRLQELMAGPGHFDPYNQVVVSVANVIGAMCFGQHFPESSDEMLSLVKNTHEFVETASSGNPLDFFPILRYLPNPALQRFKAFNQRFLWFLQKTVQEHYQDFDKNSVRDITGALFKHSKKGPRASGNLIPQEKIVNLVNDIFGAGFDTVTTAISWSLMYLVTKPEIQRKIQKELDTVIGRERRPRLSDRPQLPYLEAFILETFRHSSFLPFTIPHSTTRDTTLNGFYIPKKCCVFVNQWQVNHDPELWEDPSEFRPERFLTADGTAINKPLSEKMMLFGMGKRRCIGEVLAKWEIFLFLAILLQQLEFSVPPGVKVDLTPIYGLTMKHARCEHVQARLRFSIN
Chain of CYP2C8 (P10632 whole entry): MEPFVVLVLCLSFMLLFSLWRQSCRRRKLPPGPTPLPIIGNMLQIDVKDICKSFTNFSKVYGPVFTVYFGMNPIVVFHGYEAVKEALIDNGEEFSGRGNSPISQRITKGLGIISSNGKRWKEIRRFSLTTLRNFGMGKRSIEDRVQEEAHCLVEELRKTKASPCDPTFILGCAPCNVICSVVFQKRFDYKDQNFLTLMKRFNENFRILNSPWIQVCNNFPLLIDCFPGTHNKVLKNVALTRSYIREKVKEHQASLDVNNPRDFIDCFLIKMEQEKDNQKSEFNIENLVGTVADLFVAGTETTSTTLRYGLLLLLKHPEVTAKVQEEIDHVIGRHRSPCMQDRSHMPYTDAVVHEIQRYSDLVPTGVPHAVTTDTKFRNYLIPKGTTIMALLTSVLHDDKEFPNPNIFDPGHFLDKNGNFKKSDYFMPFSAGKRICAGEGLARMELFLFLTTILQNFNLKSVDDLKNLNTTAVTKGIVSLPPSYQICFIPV

Structure (SMILES): COC(=O)NS(=O)(=O)c1sc(CC(C)C)c(C)c1-c1ccc(Cn2ccnc2Cl)cc1 [Compound I-34, Methyl ((3-(4-((2-chloro-1H-imidazol-1-yl)methyl)phenyl)-5-isobutyl-4-methylthiophen-2-yl)sulfonyl)carbamate]
- inhibition at 10 µM (CYP1A2): 2.82%
- inhibition at 10 µM (CYP2B6): 13.7%
- inhibition at 10 µM (CYP2C19): 36.5%
- inhibition at 10 µM (CYP2C8): 71.8%
- inhibition at 10 µM (CYP2C9): 77.3%
- inhibition at 10 µM (CYP2D6): 12.6%
- inhibition at 10 µM (CYP3A4): 3.8%
- half-life at 1 μM [1]: 45 min
- half-life at 1 μM [2]: 61.9 min
- half-life at 1 μM [3]: 122 min
- Papp A→B at 2 h, 2 μM [4]: 3.13 ×10⁻⁶ cm/s
